Measured values published in US8722910B2, “Diyne compositions” (Evolva AG, priority 2009, dated 2014).
Values after ≈ are worked out from the molar mass of the structure shown. Read-outs that look alike come from different tables or passages of the source. Numbered stars: 1 amine (or outer) side, 2 acyl side, 3 side chain; on linkers, the order of the positions; unused ones are H or OH. Bridge positions count the residues as written; N and C are the ends. Square brackets hold non-standard residues; d marks the D form. Peptide text beside a SMILES is read from it. * marks the point of attachment. Orn(4R-OH,5R-OH) = O=C([C@H](C[C@@H](O)[C@@H](O)N[*:3])N[*:1])[*:2]; hTyr(3S-OH,4S-OH) = N[C@H](C(=O)O)[C@H](O)[C@@H](O)c1ccc(O)cc1; Pro(3S-OH,4S-Me) = C[C@H]1CN[C@H](C(=O)O)[C@H]1O; Benzoyl(4-octyloxy) = CCCCCCCCOc1ccc(C(=O)*)cc1; Hyp = O=C(O)[C@@H]1C[C@@H](O)CN1

Tests used:
Candida albicans = test: In vitro fungicidal activity vs. Candida albicans; conditions: Candida albicans
S. cerevisiae AD1-9 = test: IC50 (50% growth inhibition) of diyne compounds; assay type: cell-based; conditions: strain AD1-9; for IC50: Saccharomyces cerevisiae, AD19
Method: (§1) The inhibition is partly measured by minimum inhibitory and minimum fungicidal concentration (MIC and MFC, respectively) and partly as IC50 (i.e. concentration required for 50% inhibition).
(§2) IC50 against two different S. cerevisiae strains and two different C. albicans strains by a number of diyne compounds was determined and the results are shown in Table 17.

C. albicans DSY1024 = test: IC50 (50% growth inhibition) of diyne compounds; assay type: cell-based; conditions: Candida albicans, DSY1024, read-out: C. albicans IC50
Method: as §1, §2

C. albicans SC5314 [1] = test: IC50 (50% growth inhibition) of diyne compounds; assay type: cell-based; conditions: Candida albicans; strain SC5314
Method: as §1, §2

S. cerevisiae 2229-5C = test: IC50 (50% growth inhibition) of diyne compounds; assay type: cell-based; conditions: strain 2229-5C; for IC50: Saccharomyces cerevisiae, 22295C; for value in brackets after the IC50 bound (not explained): at the bound concentration
Method: as §1, §2

(1,3)β-Glucan Synthase = test: Inhibition of fungal cell wall synthesis enzymes; assay type: biochemical; conditions: 20.6 μg/ml
Source text: (§3) Specific inhibitors of each enzyme served as positive controls (Cilofungin, a β-glucan synthase inhibitor and nikkomycin Z, a chitin synthase inhibitor).

Chitin Synthase = test: Inhibition of fungal cell wall synthesis enzymes; assay type: biochemical; conditions: 9.9 μg/ml
Source text: as §3

Epidermophyton floccosum = test: In vitro antifungal activity vs. dermatophytes (MIC/MFC); assay type: cell-based; conditions: 96 h; Epidermophyton floccosum (n = 15); 35° C., 4 days
[2] = tested on: T. rubrum, Terbinafine resistant isolates; test: as above; assay type: cell-based; conditions: Trichophyton rubrum, 96 h; T. rubrum (TERB-resistant) (n = 9); 35° C., 4 days
T. terrestre = test: as above; assay type: cell-based; conditions: 96 h; T. terrestre (n = 1); 35° C., 4 days
Microsporum canis = test: as above; assay type: cell-based; conditions: 96 h; Microsporum canis (n = 15); 35° C., 4 days
M. gallinae = test: as above; assay type: cell-based; conditions: 96 h; M. gallinae (n = 1); 35° C., 4 days
all dermatophyte strains = test: MIC and MFC range over all dermatophyte strains tested; assay type: cell-based, dermatophytes; conditions: Table 14 strains
Trichophyton tonsurans = test: In vitro antifungal activity vs. dermatophytes (MIC/MFC); assay type: cell-based; conditions: 96 h; Trichophyton tonsurans (n = 15); 35° C., 4 days
T. mentagrophytes = test: as above; assay type: cell-based; conditions: Trichophyton mentagrophytes, 96 h; T. mentagrophytes (n = 15); 35° C., 4 days
M. gypseum = test: as above; assay type: cell-based; conditions: Nannizzia gypsea, 96 h; M. gypseum (n = 1); 35° C., 4 days
M. vanbreuseghemii = test: as above; assay type: cell-based; conditions: 96 h; M. vanbreuseghemii (n = 1); 35° C., 4 days
ergosterol biosynthesis = test: 13C-acetate incorporation into ergosterol; assay type: cell-based, Candida albicans; conditions: drug at about its MIC, added after the first 15 minutes
T. rubrum = test: In vitro antifungal activity vs. dermatophytes (MIC/MFC); assay type: cell-based; conditions: Trichophyton rubrum, 96 h; T. rubrum (n = 15); 35° C., 4 days
M. cookie = test: as above; assay type: cell-based; conditions: 96 h; M. cookie (n = 1); 35° C., 4 days
C. albicans SC5314 [3] = test: MIC versus reference Candida strains (broth micro dilution); assay type: cell-based
C. krusei ATCC-6258 = test: as above; conditions: Pichia kudriavzevii, ATCC6258
[4] = tested on: C. parapsilosis ATCC-90018; test: as above; conditions: Lodderomyces parapsilosis, ATCC90018
C. albicans ATCC-90028 = test: as above; conditions: Candida albicans, ATCC90028
C. albicans ATCC-24433 = test: as above; conditions: Candida albicans, ATCC24433
C. tropicalis ATCC-750 = test: as above; conditions: Candida tropicalis, ATCC750
C. glabrata ATCC-90030 = test: as above; conditions: Nakaseomyces glabratus, ATCC90030
[5] = tested on: C. parapsilosis ATCC-22019; test: as above; conditions: Lodderomyces parapsilosis, ATCC22019
OLE1 = OLE1 expression by real time PCR; assay type: cell-based, S. cerevisiae; conditions: 10 μg/ml oleic acid alone
Method: The expression of OLE1 was determined by real time PCR 10, 60, 120 and 240 min after compound addition (Knechtle, P. and Greve, K., 2009). OLE1 transcript levels were calibrated to the expression of the tubulin gene (TUB1) and normalized to the OLE1 expression at 10 min without compound addition (FIG. 17(a)).
The expression of the OLE1 gene was determined by real time PCR 10, 60, 120 and 240 min for the conditions a.-e., as indicated in Table 3 above. OLE1 transcript levels were calibrated to the expression of the tubulin gene (TUB1) and normalized to the OLE1 expression at 10 min without compound addition. See FIG. 17a showing time dependent expressions of OLE1 in response to compound IV″. Conditions a.-e. are listed in Table 3 above, numbers indicate time intervals in minutes. Expressions of OLE1 are given as multiples of the expression at 10 min, condition a. […] 10 μg/ml oleic acid compensated for the OLE1 expression increase caused by 1 μg/ml compound IV alone. Compound IV″ dependent up-regulation of OLE1 expression thus confirms that compound IV″ is acting as an inhibitor of the Ole1 protein. The antagonistic effect of oleic acid found in the susceptibility assays, is reflected mechanistically in this experiment by a down-regulation of the target Ole1 protein through oleic acid.

S. cerevisiae = test: Doubling times of S. cerevisiae; assay type: cell-based; conditions: 10 μg/ml oleic acid alone
Method: S. cerevisiae was cultured in the presence of 1 and 10 μg/ml of the potassium salt, 10 μg/ml oleic acid and 1 μg/ml of the potassium salt combined with 10 μg/ml oleic acid.
When S. cerevisiae was cultured in the presence of 1 and 10 μg/ml compound IV″, the doubling times increased to 2.4 h and 4.2 h, respectively, compared to 2 h for the untreated control. The addition of 10 μg/ml oleic acid, sodium salt, to 1 μg/ml compound IV″ reversed the doubling time to 2 h as observed for the untreated control or 10 μg/ml oleic acid, sodium salt alone.

Nc1nc(=O)[nH]cc1F [5-fluorocytosine]
Fungicidal Concentration (Candida albicans): 1563 ng/mL | MIC90 (Candida albicans; 24 h, read-out: MIC90 24 h): 0.098 µg/mL (≈ 0.759 µM) | MIC90 (Candida albicans; 48 h, read-out: MIC90 48 h): 0.195 µg/mL (≈ 1.51 µM)

O=C(O)CCCCC/C=C\C#CC#Cc1ccco1 [(Z)-12-(furan-2-yl)dodeca-7-en-9,11-diynoic acid]
IC50 (S. cerevisiae AD1-9): ~6.25 µg/mL (≈ 24.4 µM) | IC50 (C. albicans DSY1024): 1.8 µg/mL (≈ 7.02 µM) | IC50 (C. albicans SC5314 [1]): 50 µg/mL (≈ 195 µM) | IC50 (S. cerevisiae 2229-5C): ~50 µg/mL (≈ 195 µM)

O=C(O)CCCCCC/C=C\C#CC#Cc1ccco1 [(Z)-13-(furan-2-yl)trideca-8-en-10,12-diynoic acid]
IC50 (S. cerevisiae AD1-9): ~50 µg/mL (≈ 185 µM) | IC50 (C. albicans DSY1024): 0.5 µg/mL (≈ 1.85 µM) | IC50 (C. albicans SC5314 [1]): > 200 µg/mL | IC50 (S. cerevisiae 2229-5C): > 200 µg/mL | value in brackets after the IC50 bound (not explained) (S. cerevisiae 2229-5C): 25%

CCOC(=O)CCCCCCC/C=C\C#CC#Cc1ccco1 [(Z)-ethyl 14-(furan-2-yl)tetradeca-9-en-11,13-diynoate]
IC50 (S. cerevisiae AD1-9): 0.7 µg/mL (≈ 2.24 µM) | IC50 (C. albicans SC5314 [1]): 9 µg/mL (≈ 28.8 µM) | IC50 (S. cerevisiae 2229-5C): 8.9 µg/mL (≈ 28.5 µM)

COC(=O)CCCCCCC/C=C\C#CC#Cc1ccco1 [(Z)-methyl 14-(furan-2-yl)tetradeca-9-en-11,13-diynoate]
IC50 (S. cerevisiae AD1-9): > 0.4 µg/mL | value in brackets after the IC50 bound (not explained) (S. cerevisiae AD1-9; at the bound concentration): 6% | IC50 (C. albicans DSY1024): 0.19 µg/mL (≈ 0.637 µM) | IC50 (C. albicans SC5314 [1]): 0.4 µg/mL (≈ 1.34 µM) | IC50 (S. cerevisiae 2229-5C): > 0.4 µg/mL | value in brackets after the IC50 bound (not explained) (S. cerevisiae 2229-5C): 4%

CCCCCCCCOc1ccc(C(=O)N[C@H]2C[C@@H](O)[C@@H](O)NC(=O)[C@@H]3[C@@H](O)[C@@H](C)CN3C(=O)[C@H]([C@@H](C)O)NC(=O)[C@H]([C@H](O)[C@@H](O)c3ccc(O)cc3)NC(=O)[C@@H]3C[C@@H](O)CN3C(=O)[C@H]([C@@H](C)O)NC2=O)cc1 [Cilofungin, reference compound] ({Benzoyl(4-octyloxy)}-[Orn(4R-OH,5R-OH)]T[Hyp][hTyr(3S-OH,4S-OH)]T[Pro(3S-OH,4S-Me)]; lactam 1-C)
% Inhibition, (1,3)β-Glucan Synthase ((1,3)β-Glucan Synthase): 51%

C[C@@H]1C[C@@H]([C@H](O)CC2CC(=O)NC(=O)C2)C(=O)[C@@H](C)C1 [Cycloheximide]
Fungicidal Concentration (Candida albicans): 12,800,000 ng/ml | MIC90 (Candida albicans; 24 h, read-out: MIC90 24 h): 1600 µg/mL (≈ 5690 µM) | MIC90 (Candida albicans; 48 h, read-out: MIC90 48 h): 12800 µg/mL (≈ 45500 µM)

CC(=O)N1CCN(c2ccc(OCC3COC(Cn4ccnc4)(c4ccc(Cl)cc4Cl)O3)cc2)CC1 (stereo not drawn) [Ketoconazole]
Fungicidal Concentration (Candida albicans): >800,000 ng/ml | MIC90 (Candida albicans; 24 h, read-out: MIC90 24 h): 50 µg/mL (≈ 94.1 µM) | MIC90 (Candida albicans; 48 h, read-out: MIC90 48 h): > 800 µg/mL

C[C@@H]([C@H](N)C(=O)N[C@H](C(=O)O)[C@H]1O[C@@H](n2ccc(=O)[nH]c2=O)[C@H](O)[C@@H]1O)[C@H](O)c1ccc(O)cn1 [Nikkomycin Z, reference compound]
% Inhibition, Chitin Synthase (Chitin Synthase): 61%

CN(C/C=C/C#CC(C)(C)C)Cc1cccc2ccccc12 [Terbinafine, reference compound]
MIC (Epidermophyton floccosum): 0.015 µg/mL (≈ 0.0515 µM) | MIC [2]: 4 µg/mL (≈ 13.7 µM) | MIC (T. terrestre): 0.008 µg/mL (≈ 0.0275 µM) | MIC (Microsporum canis): 0.015 µg/mL (≈ 0.0515 µM) | MIC (M. gallinae): 0.008 µg/mL (≈ 0.0275 µM) | MIC range against all dermatophyte strains (all dermatophyte strains): 0.002 to 4 µg/mL | MIC (Trichophyton tonsurans): 0.008 µg/mL (≈ 0.0275 µM) | MIC (T. mentagrophytes): 0.008 µg/mL (≈ 0.0275 µM) | MIC (M. gypseum): 0.004 µg/mL (≈ 0.0137 µM) | MIC (M. vanbreuseghemii): 0.015 µg/mL (≈ 0.0515 µM) | net biosynthesis of ergosterol (13C-acetate incorporation) (ergosterol biosynthesis): inhibited the incorporation of acetate into ergosterol | MIC (T. rubrum): 0.002 µg/mL (≈ 0.00686 µM) | MIC (M. cookie): 0.008 µg/mL (≈ 0.0275 µM)

O=C(O)CCCCCCC/C=C/C#CC#Cc1ccco1 [VIII″, (E)-14-(furan-2-yl)tetradeca-9-en-11,13-diynoic acid]
MIC (C. albicans SC5314 [3]): 0.15 µg/mL (≈ 0.528 µM) | IC50 (S. cerevisiae AD1-9): 0.4 µg/mL (≈ 1.41 µM) | IC50 (C. albicans DSY1024): 0.004 µg/mL (≈ 0.0141 µM) | IC50 (C. albicans SC5314 [1]): 3 µg/mL (≈ 10.6 µM) | IC50 (S. cerevisiae 2229-5C): 2.7 µg/mL (≈ 9.5 µM)

O=C(O)CCCCCCCc1ccccc1C#CC#Cc1ccco1 [VII″, 8-(2-(4-(furan-2-yl)buta-1,3-diynyl)phenyl)octanoic acid]
MIC (C. krusei ATCC-6258): > 10.2 µg/mL | MIC [4]: > 10.2 µg/mL | MIC (C. albicans SC5314 [3]): > 10.2 µg/mL | MIC (C. albicans ATCC-90028): > 10.2 µg/mL | MIC (C. albicans ATCC-24433): > 10.2 µg/mL | MIC (C. tropicalis ATCC-750): > 10.2 µg/mL | MIC (C. glabrata ATCC-90030): > 10.2 µg/mL | MIC [5]: > 10.2 µg/mL

Cc1cc(C#CC#C/C=C\CCCCCCCC(=O)O)oc1C [VI″, (Z)-14-(4,5-dimethylfuran-2-yl)tetradeca-9-en-11,13-diynoic acid]
MIC (C. krusei ATCC-6258): > 10.2 µg/mL | MIC [4]: > 10.2 µg/mL | MIC (C. albicans SC5314 [3]): > 10.2 µg/mL | MIC (C. albicans ATCC-90028): > 10.2 µg/mL | MIC (C. albicans ATCC-24433): > 10.2 µg/mL | MIC (C. tropicalis ATCC-750): > 10.2 µg/mL | MIC (C. glabrata ATCC-90030): > 10.2 µg/mL | MIC [5]: > 10.2 µg/mL

CCCCCCCC/C=C\CCCCCCCC(=O)O [oleic acid, reference compound]
decrease of the expression level of OLE1 (OLE1): about 6 fold | Doubling time (S. cerevisiae): 2.0 h | Doubling time (S. cerevisiae; sodium salt): 2 h
